The term pKd denotes the Kd on a negative log10 scale, so that one unit is a factor of ten.

This note sets out measurements from PMC8642446 (Acta Pharmaceutica Sinica. B, 2021).

pKd: −log10 of the molar value.

In the assay the target is T1, ICAT (inhibitor of β-catenin and T-cell factor; β-catenin-interacting protein 1) (Homo sapiens, UniProt Q9NSA3).
T1 sequence (Q9NSA3 1-81): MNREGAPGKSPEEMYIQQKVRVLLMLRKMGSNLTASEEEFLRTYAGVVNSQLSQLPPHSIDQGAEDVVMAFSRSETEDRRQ
The experiment in a line: MST with EGFP-ICAT in cell lysate. In kind it is binding.

`CC1=CC(=O)[C@@H](O)[C@]2(C)[C@H]3[C@@H](O)[C@H](O)[C@]4(C)OC[C@@]35[C@@H](C[C@@H]12)OC(=O)[C@H](O)[C@]54O` [BD, Bruceine D] showed a pKd of 4.48.
